Laboratory results published in patent US20230077362A1 (CORTEVA AGRISCIENCE LLC, priority 2019, published 2023).
Where two headings read alike, the source gives them in different places.

Columns and labels:
Assay type in all cases: in vivo
[1] = system: Beet Armyworm (Spodoptera exigua) ("BAW"), second instar larvae; experiment: Bioassay on beet armyworm (BAW), 128-well diet tray assay; conditions: Spodoptera exigua
Procedure, shortened: (§1)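 Mortality (%) is scored well by well after five to seven days at 25° C. on a 14:10 light:dark regime. The value given is the mean of eight wells.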

[2] = system: Yellow Fever Mosquito "YFM" (Aedes aegypti), about 1 day-old larvae; experiment: Bioassay on yellow fever mosquito (YFM), 96-well plate larval assay; conditions: Table ABC, species YFM; mortality scored after 3 days; C = not tested, D = no activity noticed
Procedure: Example C: Bioassays on Yellow Fever Mosquito “YFM” (Aedes aegypti)
Certain molecules disclosed in this document were tested against YFM using procedures described in the following paragraph. In the reporting of the results, the “YFM Rating Table” was used (See Table Section).
Master plates containing 400 μg of a molecule dissolved in 100 μL of dimethyl sulfoxide (DMSO) (equivalent to a 4000 ppm solution) are used. A master plate of assembled molecules contains 15 μL per well. To this plate, 135 μL of a 90:10 water:acetone mixture is added to each well. A robot (Biomek® NXP Laboratory Automation Workstation) is programmed to dispense 15 μL aspirations from the master plate into an empty 96-well shallow plate (“daughter” plate). There are 6 reps (“daughter” plates) created per master. The created daughter plates are then immediately infested with YFM larvae.
The day before plates are to be treated, mosquito eggs are placed in Millipore water containing liver powder to begin hatching (4 g. into 400 mL). After the daughter plates are created using the robot, they are infested with 220 μL of the liver powder/larval mosquito mixture (about 1 day-old larvae). After plates are infested with mosquito larvae, a non-evaporative lid is used to cover the plate to reduce drying. Plates are held at room temperature for 3 days prior to grading. After 3 days, each well is observed and scored based on mortality.

[3] = system: Cabbage Looper (Trichoplusia ni) ("CL"), second instar larvae; experiment: Bioassay on cabbage looper (CL), 128-well diet tray assay; conditions: Trichoplusia ni
Procedure, shortened: as §1

[4] = system: Green Peach Aphid ("GPA") (Myzus persicae), wingless adult and nymph stages; experiment: Bioassay on green peach aphid (GPA), foliar spray on infested cabbage seedlings; conditions: Myzus persicae, foliar, 72 h
Procedure, shortened: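 Cabbage seedlings with 2-3 true leaves, infested one day earlier with 20-50 wingless adult and nymph GPA, sprayed to runoff on both leaf sides; solvent check held 20% acetone/methanol (1:1). Live aphids counted after three days at about 25° C; corrected % control = 100*(X−Y)/X versus solvent check.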

[5] = read-out: BAW (Biological Results, rating)
[6] = read-out: CL (Biological Results, rating)
[7] = read-out: GPA (Biological Results, rating)

**Q.** Which pest or weed control at 50 µg/cm2 ([1]; read-out: BAW rating) does the source give for Cc1ccc(Cc2ccc(F)cc2)c(N2C(=O)CS/C2=N\C(=O)Nc2ccc(-c3ncn(-c4ccc(C(F)(F)F)cc4)n3)cc2F)c1 [Compound J673, (Z)-1-(2-Fluoro-4-(1-(4-(trifluoromethyl)phenyl)-1H-1,2,4-triazol-3-yl)phenyl)-3-(3-(2-(4-fluorobenzyl)-5-methylphenyl)-4-oxothiazolidin-2-ylidene)urea] here?
**A.** 50 to 100%

**Q.** What about the YFM rating [2] of the same molecule?
**A.** A (80-100)

**Q.** And the pest or weed control at 50 µg/cm2 ([3]; read-out: CL rating)?
**A.** 50 to 100%

**Q.** For Cc1ccc(COCc2cc(C(F)(F)F)cc(C(F)(F)F)c2)c(N2C(=O)CS/C2=N\C(=O)Nc2ccc(-c3ncn(-c4ccc(C(F)(F)F)cc4)n3)cc2F)c1 [Compound J748, (Z)-1-(3-(2-(((3,5-Bis(trifluoromethyl)benzyl)oxy)methyl)-5-methylphenyl)-4-oxothiazolidin-2-ylidene)-3-(2-fluoro-4-(1-(4-(trifluoromethyl)phenyl)-1H-1,2,4-triazol-3-yl)phenyl)urea], which YFM rating [2] is on record?
**A.** A (80-100)

**Q.** Which pest or weed control at 50 µg/cm2 ([1]; read-out: BAW rating) does the source give for Cc1ccc(COCc2ccccc2OC(F)(F)F)c(N2C(=O)CS/C2=N\C(=O)Nc2ccc(-c3ncn(-c4ccc(C(F)(F)F)cc4)n3)cc2F)c1 [Compound J746, (Z)-1-(2-Fluoro-4-(1-(4-(trifluoromethyl)phenyl)-1H-1,2,4-triazol-3-yl)phenyl)-3-(3-(5-methyl-2-(((2-(trifluoromethoxy)benzyl)oxy)methyl)phenyl)-4-oxothiazolidin-2-ylidene)urea] here?
**A.** 50 to 100%

**Q.** And the YFM rating [2]?
**A.** A (80-100)

**Q.** For O=C(/N=C1\SCC(=O)N1c1cc(C(F)(F)F)ccc1COCc1ccccc1)Nc1ccc(-c2ncn(-c3ccc(OC(F)(F)F)cc3)n2)cc1F [Compound J741, (Z)-1-(3-(2-((Benzyloxy)methyl)-5-(trifluoromethyl)phenyl)-4-oxothiazolidin-2-ylidene)-3-(2-fluoro-4-(1-(4-(trifluoromethoxy)phenyl)-1H-1,2,4-triazol-3-yl)phenyl)urea], which YFM rating [2] is on record?
**A.** A (80-100)

**Q.** How did the pest or weed control at 50 µg/cm2 [1, 5] turn out when CC(C)c1ccc(N(C)C)cc1N1C(=O)CS/C1=N\C(=O)Nc1ccc(-c2ncn(-c3cccc(C(F)(F)F)c3)n2)cc1 [Compound J325, (Z)-1-(3-(5-(Dimethylamino)-2-isopropylphenyl)-4-oxothiazolidin-2-ylidene)-3-(4-(1-(3-(trifluoromethyl)phenyl)-1H-1,2,4-triazol-3-yl)phenyl)urea] was run?
**A.** 50 to 100%

**Q.** And the pest or weed control at 50 µg/cm2 [3, 6]?
**A.** 50 to 100%

**Q.** What about the pest or weed control at 200 µg/mL [4, 7] of the same molecule?
**A.** 0 to 80%

**Q.** COc1ccc(C(C)C)c(N2C(=O)CS/C2=N\C(=O)Nc2ccc(-c3ncn(-c4ccc(C)cc4)n3)cc2F)c1 [Compound J149, (Z)-1-(2-Fluoro-4-(1-(p-tolyl)-1H-1,2,4-triazol-3-yl)phenyl)-3-(3-(2-isopropyl-5-methoxyphenyl)-4-oxothiazolidin-2-ylidene)urea] was tested. Which pest or weed control at 50 µg/cm2 [1, 5] did it give?
**A.** 50 to 100%

**Q.** What about the pest or weed control at 50 µg/cm2 [3, 6] of the same molecule?
**A.** 50 to 100%

**Q.** What about the pest or weed control at 200 µg/mL [4, 7] of the same molecule?
**A.** 0 to 80%

**Q.** Which pest or weed control at 50 µg/cm2 [1, 5] does the source give for Cc1ccc(C(C)C)c(N2C(=O)C(Cl)S/C2=N\C(=O)Nc2ccc(-c3ncn(-c4ccc(OC(F)(F)F)cc4)n3)cc2F)c1 (stereo not shown) [Compound J32, (Z)-1-(5-chloro-3-(2-isopropyl-5-methylphenyl)-4-oxothiazolidin-2-ylidene)-3-(2-fluoro-4-(1-(4-(trifluoromethoxy)phenyl)-1H-1,2,4-triazol-3-yl)phenyl)urea] here?
**A.** 50 to 100%

**Q.** What about the pest or weed control at 50 µg/cm2 [3, 6] of the same molecule?
**A.** 50 to 100%

**Q.** And the pest or weed control at 200 µg/mL [4, 7]?
**A.** 0 to 80%

**Q.** Which results are given for CCOc1ccc(N(C)C)cc1N1C(=O)CS/C1=N\C(=O)Nc1ccc(-c2ncn(-c3ccc(OC(F)(F)F)cc3)n2)cc1F [Compound J192, (Z)-1-(3-(5-(Dimethylamino)-2-ethoxyphenyl)-4-oxothiazolidin-2-ylidene)-3-(2-fluoro-4-(1-(4-(trifluoromethoxy)phenyl)-1H-1,2,4-triazol-3-yl)phenyl)urea]?
**A.** pest or weed control at 50 µg/cm2 [1, 5]: 50 to 100%; pest or weed control at 50 µg/cm2 [3, 6]: 50 to 100%; pest or weed control at 200 µg/mL [4, 7]: 0 to 80%

**Q.** With CCOCc1ccc(C)cc1N1C(=O)CS/C1=N\C(=O)Nc1ccc(-c2cn(-c3ccc(S(=O)(=O)C(F)(F)F)cc3)cn2)cc1F [Compound J646, (Z)-1-(3-(2-(Ethoxymethyl)-5-methylphenyl)-4-oxothiazolidin-2-ylidene)-3-(2-fluoro-4-(1-(4-((trifluoromethyl)sulfonyl)phenyl)-1H-imidazol-4-yl)phenyl)urea] as the molecule, how does the pest or weed control at 50 µg/cm2 ([1]; read-out: BAW rating) read?
**A.** 50 to 100%

**Q.** And the pest or weed control at 50 µg/cm2 ([3]; read-out: CL rating)?
**A.** 50 to 100%

**Q.** What about the pest or weed control at 200 µg/mL ([4]; read-out: GPA rating) of the same molecule?
**A.** 0 to 80%

**Q.** With CCCc1ccc(OCC)cc1N1C(=O)CS/C1=N\C(=O)Nc1ccc(-c2ncn(-c3ccc(OC(F)(F)F)cc3)n2)cc1F [Compound J169, (Z)-1-(3-(5-Ethoxy-2-propylphenyl)-4-oxothiazolidin-2-ylidene)-3-(2-fluoro-4-(1-(4-(trifluoromethoxy)phenyl)-1H-1,2,4-triazol-3-yl)phenyl)urea] as the molecule, how does the pest or weed control at 50 µg/cm2 [1, 5] read?
**A.** 50 to 100%

**Q.** And the pest or weed control at 50 µg/cm2 [3, 6]?
**A.** 50 to 100%

**Q.** What about the pest or weed control at 200 µg/mL [4, 7] of the same molecule?
**A.** 0 to 80%

**Q.** Which pest or weed control at 50 µg/cm2 [1, 5] does the source give for COC(C)c1ccc(C)cc1N1C(=O)CS/C1=N\C(=O)Nc1ccc(-c2ncn(-c3cccc(OC(F)(F)F)c3)n2)cc1F (stereo not shown) [Compound J120, (Z)-1-(2-Fluoro-4-(1-(3-(trifluoromethoxy)phenyl)-1H-1,2,4-triazol-3-yl)phenyl)-3-(3-(2-(1-methoxyethyl)-5-methylphenyl)-4-oxothiazolidin-2-ylidene)urea] here?
**A.** 50 to 100%

**Q.** What about the pest or weed control at 50 µg/cm2 [3, 6] of the same molecule?
**A.** 50 to 100%

**Q.** And the pest or weed control at 200 µg/mL [4, 7]?
**A.** 0 to 80%

**Q.** Which pest or weed control at 50 µg/cm2 [1, 5] does the source give for CCc1cc(-c2ncn(-c3ccc(OC(F)(F)F)cc3)n2)ccc1NC(=O)/N=C1\SCC(=O)N1c1cc(C)ccc1OCCC(F)(F)F [Compound J73, (Z)-1-(2-Ethyl-4-(1-(4-(trifluoromethoxy)phenyl)-1H-1,2,4-triazol-3-yl)phenyl)-3-(3-(5-methyl-2-(3,3,3-trifluoropropoxy)phenyl)-4-oxothiazolidin-2-ylidene)urea] here?
**A.** 50 to 100%

**Q.** And the pest or weed control at 50 µg/cm2 [3, 6]?
**A.** 50 to 100%

**Q.** And the pest or weed control at 200 µg/mL [4, 7]?
**A.** 0 to 80%

**Q.** For Cc1ccc(OCCC(F)(F)F)c(N2C(=O)CS/C2=N\C(=O)Nc2ccc(-c3ncn(-c4ccc(C(F)(F)F)cc4)n3)cc2)c1 [Compound J315, (Z)-1-(3-(5-Methyl-2-(3,3,3-trifluoropropoxy)phenyl)-4-oxothiazolidin-2-ylidene)-3-(4-(1-(4-(trifluoromethyl)phenyl)-1H-1,2,4-triazol-3-yl)phenyl)urea], which pest or weed control at 50 µg/cm2 [1, 5] is on record?
**A.** 50 to 100%

**Q.** And the pest or weed control at 50 µg/cm2 [3, 6]?
**A.** 50 to 100%

**Q.** What about the pest or weed control at 200 µg/mL [4, 7] of the same molecule?
**A.** 0 to 80%

**Q.** How did the pest or weed control at 50 µg/cm2 ([1]; read-out: BAW rating) turn out when Cc1ccc(COCc2ccc(F)cc2)c(N2C(=O)CS/C2=N\C(=O)Nc2ccc(-c3ncn(-c4ccc(OC(F)(F)F)cc4)n3)cc2F)c1 [Compound J574, (Z)-1-(2-Fluoro-4-(1-(4-(trifluoromethoxy)phenyl)-1H-1,2,4-triazol-3-yl)phenyl)-3-(3-(2-(((4-fluorobenzyl)oxy)methyl)-5-methylphenyl)-4-oxothiazolidin-2-ylidene)urea] was run?
**A.** 50 to 100%

**Q.** And the pest or weed control at 50 µg/cm2 ([3]; read-out: CL rating)?
**A.** 50 to 100%

**Q.** And the pest or weed control at 200 µg/mL ([4]; read-out: GPA rating)?
**A.** 0 to 80%

**Q.** Which results are given for CC(=O)c1ccc(C(C)C)c(N2C(=O)CS/C2=N\C(=O)Nc2ccc(-c3ncn(-c4ccc(OC(F)(F)F)cc4)n3)cc2F)c1 [Compound J77, (Z)-1-(3-(5-Acetyl-2-isopropylphenyl)-4-oxothiazolidin-2-ylidene)-3-(2-fluoro-4-(1-(4-(trifluoromethoxy)phenyl)-1H-1,2,4-triazol-3-yl)phenyl)urea]?
**A.** pest or weed control at 50 µg/cm2 [1, 5]: 50 to 100%; pest or weed control at 50 µg/cm2 [3, 6]: 50 to 100%; pest or weed control at 200 µg/mL [4, 7]: 0 to 80%

**Q.** Which pest or weed control at 50 µg/cm2 ([1]; read-out: BAW rating) does the source give for Cc1ccc(COCC(F)(F)F)c(N2C(=O)CS/C2=N\C(=O)Nc2ccc(-c3ncn(-c4ccc(C(F)F)cc4)n3)cc2C)c1 [Compound J684, (Z)-1-(4-(1-(4-(Difluoromethyl)phenyl)-1H-1,2,4-triazol-3-yl)-2-methylphenyl)-3-(3-(5-methyl-2-((2,2,2-trifluoroethoxy)methyl)phenyl)-4-oxothiazolidin-2-ylidene)urea] here?
**A.** 50 to 100%

**Q.** What about the pest or weed control at 50 µg/cm2 ([3]; read-out: CL rating) of the same molecule?
**A.** 50 to 100%

**Q.** What about the pest or weed control at 200 µg/mL ([4]; read-out: GPA rating) of the same molecule?
**A.** 0 to 80%

**Q.** COC(C)c1ccc(C)cc1N1C(=O)CS/C1=N\C(=O)Nc1ccc(-c2ncn(-c3ccc(SC(F)(F)F)cc3)n2)cc1 (stereo not shown) [Compound J350, (Z)-1-(3-(2-(1-methoxyethyl)-5-methylphenyl)-4-oxothiazolidin-2-ylidene)-3-(4-(1-(4-((trifluoromethyl)thio)phenyl)-1H-1,2,4-triazol-3-yl)phenyl)urea] was tested. Which pest or weed control at 50 µg/cm2 [1, 5] did it give?
**A.** 50 to 100%

**Q.** And the pest or weed control at 50 µg/cm2 [3, 6]?
**A.** 50 to 100%

**Q.** And the pest or weed control at 200 µg/mL [4, 7]?
**A.** 0 to 80%
